Read-outs that look alike come from different tables or passages of the source.
What was measured:
[1] = system: Secretion of IL10 by OCI-LY3 ABC-DLBCL cells; assay: Human IL10 Mesoscale assay (OCI-LY3); type: cell-based; settings: read-out: Human IL10 Mesoscale assay (OCI-LY3)
Outline: (§1)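 TMD8 or OCI-LY3 ABC-DLBCL cells incubated with compound 24 h at 37° C without beta-mercaptoethanol. Secreted IL6 and IL10 in supernatant quantified by MSD electrochemiluminescence immunoassay; DMSO wells define maximum signal.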

[2] = target: T1, full-length MALT1 protein (Strep-MALT1(1-824)-His) (Homo sapiens, UniProt Q9UDY8); assay: biochemical;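 note: fluorogenic LRSR-AMC substrate cleavage by MALT1, 50 min compound preincubation then 4 h reaction at RT, 11-point dilution from 30 µM, scaled between enzyme-free and untreated enzyme controls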
T1 sequence (Q9UDY8 1-824): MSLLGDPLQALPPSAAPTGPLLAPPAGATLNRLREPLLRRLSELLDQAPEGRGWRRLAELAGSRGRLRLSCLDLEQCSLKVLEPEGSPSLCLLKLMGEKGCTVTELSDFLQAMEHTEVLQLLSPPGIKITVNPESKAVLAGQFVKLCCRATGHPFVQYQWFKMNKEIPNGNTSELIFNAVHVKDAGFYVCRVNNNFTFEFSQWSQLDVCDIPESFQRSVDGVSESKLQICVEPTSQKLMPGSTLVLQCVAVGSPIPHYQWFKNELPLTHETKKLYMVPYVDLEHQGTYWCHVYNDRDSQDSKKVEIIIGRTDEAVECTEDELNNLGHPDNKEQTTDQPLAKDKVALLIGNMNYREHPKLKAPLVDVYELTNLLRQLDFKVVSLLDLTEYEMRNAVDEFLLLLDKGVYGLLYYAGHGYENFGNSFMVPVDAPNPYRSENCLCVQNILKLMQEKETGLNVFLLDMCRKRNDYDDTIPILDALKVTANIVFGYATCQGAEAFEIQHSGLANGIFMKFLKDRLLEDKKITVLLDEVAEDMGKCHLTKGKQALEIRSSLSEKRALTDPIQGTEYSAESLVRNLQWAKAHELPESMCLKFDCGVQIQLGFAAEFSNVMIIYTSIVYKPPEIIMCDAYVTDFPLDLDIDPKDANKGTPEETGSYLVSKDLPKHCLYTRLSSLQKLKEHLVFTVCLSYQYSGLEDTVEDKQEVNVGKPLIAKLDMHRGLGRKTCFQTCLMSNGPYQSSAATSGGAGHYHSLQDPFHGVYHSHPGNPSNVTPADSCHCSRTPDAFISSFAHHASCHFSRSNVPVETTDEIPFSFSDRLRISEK

[3] = system: Secretion of IL6 by OCI-LY3 ABC-DLBCL cells; assay: Human IL6 Mesoscale assay (OCI-LY3); type: cell-based; settings: read-out: Human IL6 Mesoscale assay (OCI-LY3)
Outline: as §1

[4] = system: OCI-Ly3 ABC-DLBCL cell line; assay: 4-day proliferation assay OCI-Ly3; type: cell-based; settings: Homo sapiens, read-out: Anti-proliferation: OCI-LY-3 IC50
Method: To assess anti-proliferative effects, MALT1 inhibitor test compounds were tested in 4-day proliferation assays using three different DLBCL cell lines.
Cells should be kept between 0.5-2.5 million cells per mL during culturing and cells should be supplemented every 2-3 days with fresh 50 μM beta-mercaptoenthanol. No beta-mercaptoethanol is used during the proliferation assay. OCI-Ly7 cells were propagated in IMDM (ThermoFisher) supplemented with 10% fetal bovine serum (HyClone), 2 mM L-glutamine (Sigma Aldrich) and 50 μg/mL Gentamycin. Cell passage numbers should not exceed 30.
10,000 TMD8, 10,000 OCI-Ly3 or 2,000 OCI-Ly7 cells were seeded in 100 μL media per well and incubated for 4 days at 37° C. and 5% CO2. Cell plating numbers were chosen based on growth curves to ensure linear cell growth. After 4 days of incubation 50 μl CellTiterGLO reagent (Promega) were added to each well and luminescence was measured on the Envision after 10 min of incubation at room temperature.

[5] = OCI-LY3 cells, 24 h incubation, supernatant, MSD V-Plex
[6] = 96 h, 10,000 OCI-Ly3 cells per well, 4 days, CellTiterGLO

Compound | IC50 [1, 5] [nM] | IC50 [2] [nM] | IC50 [3, 5] [nM] | IC50 [4, 6] [nM] | IC50 ([1]; OCI-Ly3, 24 h) [nM] | IC50 ([3]; OCI-Ly3, 24 h) [nM] | IC50 ([4]; OCI-Ly3, 96 h) [nM]
N#Cc1cc(NC(=O)c2cnn(-c3ccnc(N)c3Cl)c2C(F)(F)F)cnc1-n1nccn1 [Cpd 56, 1-(2-amino-3-chloropyridin-4-yl)-N-(5-cyano-6-(2H-1,2,3-triazol-2-yl)pyridin-3-yl)-5-(trifluoromethyl)-1H-pyrazole-4-carboxamide] |  | 78 |  |  | 363 | 389 | 5010
Nc1nccc(-n2ncc(C(=O)Nc3cnc(-n4nccn4)c(Cl)c3)c2C(F)(F)F)c1Cl [Cpd 57, 1-(2-amino-3-chloropyridin-4-yl)-N-(5-chloro-6-(2H-1,2,3-triazol-2-yl)pyridin-3-yl)-5-(trifluoromethyl)-1H-pyrazole-4-carboxamide] |  | 107 |  |  | 117 | 162 | 1200
O=C(Nc1cnc(-n2nccn2)c(Cl)c1)c1cnn(-c2cccc3c2OC(F)(F)O3)c1C(F)(F)F [Cpd 58, N-(5-chloro-6-(2H-1,2,3-triazol-2-yl)pyridin-3-yl)-1-(2,2-difluorobenzo[d][1,3]dioxol-4-yl)-5-(trifluoromethyl)-1H-pyrazole-4-carboxamide] | 195 | 145 | 407 | 7240 |  |  | 
COc1cc(F)ccc1-n1ncc(C(=O)Nc2cnc(-n3nccn3)c(Cl)c2)c1C(F)(F)F [Cpd 81, N-(5-chloro-6-(2H-1,2,3-triazol-2-yl)pyridin-3-yl)-1-(4-fluoro-2-methoxyphenyl)-5-(trifluoromethyl)-1H-pyrazole-4-carboxamide] | 138 | 162 | 138 | 1260 |  |  | 
O=C(Nc1cnc(-n2nccn2)c(Cl)c1)c1cnn(-c2cccc(F)c2Cl)c1C(F)(F)F [Cpd 82, 1-(2-chloro-3-fluorophenyl)-N-(5-chloro-6-(2H-1,2,3-triazol-2-yl)pyridin-3-yl)-5-(trifluoromethyl)-1H-pyrazole-4-carboxamide] |  | 162 |  | 3390 |  |  | 
O=C(Nc1cnc(-n2nccn2)c(Cl)c1)c1cnn(-c2ccc(F)cc2Br)c1C(F)(F)F [Cpd 83, 1-(2-bromo-4-fluorophenyl)-N-(5-chloro-6-(2H-1,2,3-triazol-2-yl)pyridin-3-yl)-5-(trifluoromethyl)-1H-pyrazole-4-carboxamide] |  | 129 |  | 2240 |  |  | 
N#Cc1cc(NC(=O)c2cnn(-c3c(F)cccc3Cl)c2C(F)(F)F)cnc1-n1nccn1 [Cpd 98, 1-(2-chloro-6-fluorophenyl)-N-(5-cyano-6-(2H-1,2,3-triazol-2-yl)pyridin-3-yl)-5-(trifluoromethyl)-1H-pyrazole-4-carboxamide] | 166 | 263 | 191 | 437 |  |  | 
N#Cc1cc(NC(=O)c2cnn(-c3c(F)cc(F)cc3Cl)c2C(F)(F)F)cnc1-n1nccn1 [Cpd 99, 1-(2-chloro-4,6-difluorophenyl)-N-(5-cyano-6-(2H-1,2,3-triazol-2-yl)pyridin-3-yl)-5-(trifluoromethyl)-1H-pyrazole-4-carboxamide] |  | 170 |  |  | 174 | 148 | 324
Cc1cc(F)cnc1-n1ncc(C(=O)Nc2cnc(-n3nccn3)c(Cl)c2)c1C(F)(F)F [Cpd 112, N-(5-chloro-6-(2H-1,2,3-triazol-2-yl)pyridin-3-yl)-1-(5-fluoro-3-methylpyridin-2-yl)-5-(trifluoromethyl)-1H-pyrazole-4-carboxamide] |  | 457 |  |  |  |  | 724
O=C(Nc1cnc(-n2nccn2)c(Cl)c1)c1cnn(-c2ccc(F)cc2F)c1C(F)(F)F [Cpd 117, N-(5-chloro-6-(2H-1,2,3-triazol-2-yl)pyridin-3-yl)-1-(2,4-difluorophenyl)-5-(trifluoromethyl)-1H-pyrazole-4-carboxamide] |  | 288 |  | 407 |  |  | 
N#Cc1cc(NC(=O)c2cnn(-c3cccc4c3CCNC4)c2C(F)(F)F)cnc1-n1nccn1 [Cpd 129, N-(5-cyano-6-(2H-1,2,3-triazol-2-yl)pyridin-3-yl)-1-(1,2,3,4-tetrahydroisoquinolin-5-yl)-5-(trifluoromethyl)-1H-pyrazole-4-carboxamide] |  | 2400 |  | 1410 |  |  | 
CN1CCCc2cccc(-n3ncc(C(=O)Nc4cnc(-n5nccn5)c(C#N)c4)c3C(F)(F)F)c21 [Cpd 131, N-(5-cyano-6-(2H-1,2,3-triazol-2-yl)pyridin-3-yl)-1-(1-methyl-1,2,3,4-tetrahydroquinolin-8-yl)-5-(trifluoromethyl)-1H-pyrazole-4-carboxamide] |  | 776 |  | 19100 |  |  | 
O=C1NCc2c1cccc2-n1ncc(C(=O)Nc2cnc(-n3nccn3)c(Cl)c2)c1C(F)(F)F [Cpd 133, N-(5-chloro-6-(2H-1,2,3-triazol-2-yl)pyridin-3-yl)-1-(1-oxoisoindolin-4-yl)-5-(trifluoromethyl)-1H-pyrazole-4-carboxamide] |  | 155 |  | 5500 |  |  | 

Now those with a lower IC50 [2], led by results:

IC50 [1, 5] [nM] | IC50 [2] [nM] | IC50 [3, 5] [nM] | IC50 [4, 6] [nM] | IC50 ([1]; OCI-Ly3, 24 h) [nM] | IC50 ([3]; OCI-Ly3, 24 h) [nM] | IC50 ([4]; OCI-Ly3, 96 h) [nM] | Compound
151 | 71 | 178 | 741 |  |  |  | N#Cc1cc(NC(=O)c2cnn(-c3ccc(F)c(F)c3Cl)c2C(F)(F)F)cnc1-n1nccn1 [Cpd 60, 1-(2-chloro-3,4-difluorophenyl)-N-(5-cyano-6-(2H-1,2,3-triazol-2-yl)pyridin-3-yl)-5-(trifluoromethyl)-1H-pyrazole-4-carboxamide]
56 | 55 | 120 | 2400 |  |  |  | O=C(Nc1cnc(-n2nccn2)c(Cl)c1)c1cnn(-c2ccnc3c2OCO3)c1C(F)(F)F [Cpd 52, 1-([1,3]dioxolo[4,5-b]pyridin-7-yl)-N-(5-chloro-6-(2H-1,2,3-triazol-2-yl)pyridin-3-yl)-5-(trifluoromethyl)-1H-pyrazole-4-carboxamide]
71 | 54 | 98 | 851 |  |  |  | N#Cc1cc(NC(=O)c2cnn(-c3ccc(F)cc3Cl)c2C(F)(F)F)cnc1-n1nccn1 [Cpd 51, 1-(2-chloro-4-fluorophenyl)-N-(5-cyano-6-(2H-1,2,3-triazol-2-yl)pyridin-3-yl)-5-(trifluoromethyl)-1H-pyrazole-4-carboxamide]
 | 54 |  | 1550 |  |  |  | Cc1cc(F)ccc1-n1ncc(C(=O)Nc2cnc(-n3nccn3)c(C#N)c2)c1C(F)(F)F [Cpd 64, N-(5-cyano-6-(2H-1,2,3-triazol-2-yl)pyridin-3-yl)-1-(4-fluoro-2-methylphenyl)-5-(trifluoromethyl)-1H-pyrazole-4-carboxamide]
427 | 45 | 380 | 912 |  |  |  | Nc1nc(-n2ncc(C(=O)Nc3cnc(-n4nccn4)c(Cl)c3)c2C(F)(F)F)ccc1F [Cpd 62, 1-(6-amino-5-fluoropyridin-2-yl)-N-(5-chloro-6-(2H-1,2,3-triazol-2-yl)pyridin-3-yl)-5-(trifluoromethyl)-1H-pyrazole-4-carboxamide]
49 | 24 | 69 | 2510 |  |  |  | N#Cc1cc(NC(=O)c2cnn(-c3ccc(F)c(N)n3)c2C(F)(F)F)cnc1-n1nccn1 [Cpd 63, 1-(6-amino-5-fluoropyridin-2-yl)-N-(5-cyano-6-(2H-1,2,3-triazol-2-yl)pyridin-3-yl)-5-(trifluoromethyl)-1H-pyrazole-4-carboxamide]

Reference: patent publication US11040031B2, “Pyrazole derivatives as MALT1 inhibitors” (Janssen Pharmaceutica NV, priority 2018, dated 2021)
